Where two headings read alike, the source gives them in different places.
Assays:
[1] = test system: hemocyte PLA2 of S. exigua; test: Nonspecific (total) hemocyte PLA2 activity, pyrene-labeled phospholipid fluorometric assay; type: biochemical, Spodoptera exigua; details: for Median Inhibitory Concentrations (IC50), Total PLA2: hemocyte extract of S. exigua L5 larvae, synthetic compounds
Description: Hemocyte PLA2 activity was fluorometrically determined with a pyrene-labeled phospholipid substrate using a spectrofluorometer (VICTOR multi-label plate reader, PerkinElmer, Waltham, MA, USA) at excitation and emission wavelengths of 345 and 398 nm, respectively. For measuring PLA2 activity, hemolymph was collected from ~10 L5 larvae. Hemocytes and plasma were separated by centrifugation at 800× g for 3 min at 4 °C. Hemocytes were then homogenized in 500 µL of PBS with a polytron (Ultra-Turrax T8, Ika Laboratory, Funkentshort, Germany). After centrifugation at 14,000× g for 5 min at 4 °C, protein concentration of the supernatant was determined by Bradford assay using bovine serum albumin (BSA) as the standard. The reaction mixture was prepared in a 96-well microplate by adding 129 μL of 50 mM Tris buffer (pH 7.0), 2 μL of 1 M CaCl2, and 2 μL of 10% BSA into each well. A sample solution consisted of 5 μL of test bacterial metabolites and 10 μL of hemocyte enzyme extract ([…]). The plate was then incubated at room temperature for 30 min. Enzyme reaction was then initiated by adding pyrene-labeled PL substrate (2 μL) to the reaction mixture.

[2] = test system: S. exigua larvae; test: Insecticidal activity by injection; type: in vivo, Spodoptera exigua; details: for Insecticidal Activities, Injection: median lethal dose by Probit analysis, S. exigua larvae
Description: All data for continuous variables were subjected to one-way analysis of variance (ANOVA) using PROG GLM in SAS program. Mortality data were subjected to arcsine transformation and used for ANOVA. Means were compared with the least significant difference (LSD) test at Type I error of 0.05. Median toxicity values such as median lethal dose (LD50), median lethal concentration (LC50), median lethal time (LT50), and median inhibition concentrations (IC50) were calculated by Probit analysis using EPA Probit Analysis Program, ver. 1.5 (U.S. Environmental Protection Agency, Washington, DC, USA). […]

[3] = test system: mammals; details: cited from earlier work
[4] = test system: Sf9 cells; test: Cytotoxicity test (MTT); type: cell-based; details: for Cytotoxicity (MIC, minimum inhibitory concentration): MTT, 24 h at 28 °C
Description: Cytotoxicity of each secondary metabolite was evaluated by 3-(4,5 dimethylthiazol-2-yl)-2,5-diphenyl tetrazolium bromide (MTT) assay according to the method described by Mollah et al.. with a slight modification. Briefly, Sf9 cells (1.2 × 10^4 cells in 200 μL of TC-100 medium) were seeded into each 96-well. After adding each test chemical (2.5 μL in DMSO), the plate was incubated at 28 °C for 24 h. Control cells were treated with 2.5 μL of DMSO. After 24 h incubation, 10 μL of MTT (5 mg/mL in PBS) was added to each well and cells were cultured for another 4 h at 28 °C. Formazan granules formed in viable cells were dissolved in 50 μL of DMSO. Absorbance was then measured at 540 nm using a microplate reader (Victor Multilabel Plate Reader, PerkinElmer, Waltham, MA, USA).

[5] = test system: hemocyte nodule formation; test: Nodulation assay after E. coli injection in L5 larvae; type: in vivo, Spodoptera exigua; details: for Median Inhibitory Concentration (IC50), Nodulation: injected into L5 larvae with E. coli, nodules counted after 8 h
Description: To assess nodule formation, immune challenge was performed by injecting 3 µL of Escherichia coli Top10 (10^4 cells/larva) (Invitrogen, Madison, WI, USA) through the abdominal proleg of L5 larvae using a microsyringe (Hamilton, Reno, NV, USA). After incubating at 25 °C for 8 h, test insects were dissected to count the number of melanized nodules under a stereo microscope (Stemi SV11, Zeiss, Jena, Germany) at 50× magnification. For chemical test, 1 µL aliquot of test chemical at different concentrations was injected into each larva along with E. coli. AA was injected at 10 μg per larva. Each treatment was independently replicated five times.

[6] = test system: cytosolic PLA2 (cPLA2); test: Cytosolic PLA2 (cPLA2) activity; type: biochemical, Spodoptera exigua; details: for Median Inhibitory Concentrations (IC50), cPLA2: S. exigua, synthetic compounds; for Potency for inhibiting cPLA2 (in words): based on IC50 values
Description: (§1) To characterize PLA2 inhibition by test chemicals, activities of two different PLA2s [secretory PLA2 (sPLA2) and cytosolic PLA2 (cPLA2)] were assessed with methods described by Vatanparast et al..

[7] = test system: secretory PLA2 (sPLA2); test: Secretory PLA2 (sPLA2) activity; type: biochemical, Spodoptera exigua; details: for Median Inhibitory Concentrations (IC50), sPLA2: S. exigua, synthetic compounds
Description: as §1

[8] = test system: hemocyte phagocytosis of S. exigua; test: Phagocytosis assay with FITC-labeled E. coli in L5 larvae; type: in vivo, Spodoptera exigua; details: for Median Inhibitory Concentration (IC50), Phagocytosis: injected into L5 larvae with FITC-labeled E. coli
Description: For in vivo phagocytosis assay, test chemical (1 µL) and FITC-labeled E. coli (5 µL, 5 × 10^4 cells/µL) were injected to L5 larva. Hemolymph (50 µL) was collected at 15 min after injection and mixed with 50 µL of ice cold ACB. After centrifugation at 700 × g for 3 min at 4 °C, the supernatant plasma was replaced with 100 µL of TC-100 insect cell culture medium (Welgene, Daegu, Korea). Hemocyte suspension (10 µL) was placed onto a slide and over laid with 10 µL glycerol (50%, v/v). Hemocytes undergoing phagocytosis were determined by fluorescence-emitting cells under a fluorescence microscope (Leica, Wetzlar, Germany) at 40× magnification. For in vitro phagocytosis, hemocyte suspension and labeled bacteria mixture (30 µL) were incubated in a dark place for 1 h at room temperature. Hemocytes were then washed three times with PBS by centrifugation at 700× g for 2 min at 4 °C and finally resuspended in TC-100 medium. This hemocyte suspension was observed under the fluorescence microscope in FITC or DIC mode after forming monolayers on glass slides.

[9] = test system: S. exigua larvae; test: Feeding toxicity, leaf-dipping method; type: in vivo, Spodoptera exigua; details: for Insecticidal Activities, Feeding: median lethal concentration by Probit analysis, leaf-dipping
Description: (§2) For the virulence test of X. hominickii, 24 h-cultured cells (10^8 cfu/mL) were diluted with sterile PBS. After surface sterilization with 95% ethanol, each L5 larva was injected with 1 µL of test compound (1 µg/larva) along with bacterial suspension (10^2 cfu/larva). Injection was performed through the first abdominal proleg using a micro syringe. Injected larvae were incubated at room temperature individually in 9 cm Petri dishes. For oral toxicity assay of B. thuringiensis, a small piece (2 × 2 cm) of Chinese cabbage was dipped in 500 ppm of Bt or a mixture of Bt (500 ppm) with 500 ppm of test chemical for 5 min. After a brief (5 min) drying under a dark condition, the treated leaf was supplied to individual test larva in 9 cm Petri dish for 24 h at room temperature. After 24 h, larvae were fed with fresh cabbage leaves. Each treatment was replicated three times with 10 larvae per replication. […] Larvae were considered dead if they were unable to move in a coordinated manner when prodded with a blunt probe.
All data for continuous variables were subjected to one-way analysis of variance (ANOVA) using PROG GLM in SAS program. Mortality data were subjected to arcsine transformation and used for ANOVA. Means were compared with the least significant difference (LSD) test at Type I error of 0.05. Median toxicity values such as median lethal dose (LD50), median lethal concentration (LC50), median lethal time (LT50), and median inhibition concentrations (IC50) were calculated by Probit analysis using EPA Probit Analysis Program, ver. 1.5 (U.S. Environmental Protection Agency, Washington, DC, USA).
These compounds were also tested for their feeding toxicities using a leaf-dipping method.

[10] = test system: rats; details: cited from earlier work
[11] = test system: rabbits; details: cited from earlier work
[12] = test system: S. exigua larvae; test: Effect on pathogenicity of X. hominickii (co-injection); type: in vivo, Spodoptera exigua; details: L5 larvae injected with Xh 10^2 cfu/larva along with inhibitor (5 µg/larva Fig. 7A; 2 µg/larva Fig. S6); 4 days after treatment
Description: as §2, with “After surface sterilization with 95% ethanol, each L5 larva was injected with 1 µL of test compound (1 µg/larva) along with bacterial suspension (10^2 cfu/larva).” left out

[13] = test system: S. exigua larvae; test: Effect on pathogenicity of Bacillus thuringiensis (oral, leaf dipping); type: in vivo, Spodoptera exigua; details: cabbage leaf dipped in Bt 500 ppm mixed with inhibitor 500 ppm; 4 days after treatment
Description: as §2

[14] = molecular target: mushroom tyrosinase; parameters: method as in PMID 14714727; details: cited from earlier work
[15] = reference not printed with the value, next sentence cites ref 48

| SMILES | Median Inhibitory Concentrations (IC50), Total PLA2 [1] | Insecticidal Activities, Injection [2] | Cytotoxicity (MIC, minimum inhibitory concentration) [4] | Median Inhibitory Concentration (IC50), Nodulation [5] | Median Inhibitory Concentrations (IC50), cPLA2 [6] | Potency for inhibiting cPLA2 (in words) [6] | Median Inhibitory Concentrations (IC50), sPLA2 [7] | Median Inhibitory Concentration (IC50), Phagocytosis [8] | Insecticidal Activities, Feeding [9] | also measured |
| --- | --- | --- | --- | --- | --- | --- | --- | --- | --- | --- |
| CCCCCCCCOC(=O)c1ccc(C(=O)OCCCCCCCC)cc1 [DOTP, dioctyl terephthalate] | 0.16 ± 0.006 cd µg/mL | 38.89 ± 3.21 b µg/larva | 0.50 ± 0.01 c µg/mL | 1.10 ± 0.07 b ng/larva | 0.06 ± 0.005 e µg/mL | highly potent | 0.56 ± 0.05 c µg/mL | 8.70 ± 0.89 b ng/larva | 3220.45 ± 90.91 b µg/mL | Toxicity to mammals (in words) [3]: relatively nontoxic |
| CCCCC(CC)COC(=O)c1ccccc1C(=O)OCC(CC)CCCC (stereo not drawn) [BEP, bis(2-ethylhexyl) phthalate] | 0.17 ± 0.01 cd ^2 µg/mL | 34.88 ± 2.08 bc µg/larva | 0.30 ± 0.01 d ^3 µg/mL | 1.0 ± 0.11 c ng/larva | 0.09 ± 0.01 µg·days/mL |  | 0.07 ± 0.01 ef µg/mL | 1.50 ± 0.22 d ^2 ng/larva | 2679.58 ± 60.58 µg·days/mL | Acute toxicity, oral ([10]; oral administration): 30 g/kg; Potency for inhibiting sPLA2 (in words) ([7]; based on IC50 values): highly potent; Acute toxicity, dermal ([11]; dermal application): 24 g/kg |
| O=C1NC(=O)c2ccccc21 [PM, phthalimide] | 0.05 ± 0.007 e µg/mL | 22.11 ± 2.69 d µg/larva | 0.1 ± 0.01 f µg/mL | 0.20 ± 0.02 f ng/larva | 0.04 ± 0.003 f µg/mL | highly potent | 0.17 ± 0.01 µg·days/mL | 0.40 ± 0.05f ng/larva | 2150.66 ± 50.07 f µg/mL | Inhibitory activity against hemocyte PLA2 (in words) ([1]; S. exigua hemocyte PLA2, extracts, fractions or synthetic compounds): most potent; Killing of larvae after injection (in words) ([2]; individually injected to S. exigua larvae): most potent; Acute mammalian toxicity LD50 ([3]; oral administration): > 5000 mg/kg; Effect on X. hominickii pathogenicity / insecticidal activity [12]: significantly (p < 0.05) increased; Concentration inducing cytotoxicity [4]: less than 1 µg/mL; Inhibition of nodule formation (in words) ([5]; S. exigua L5 larvae, E. coli challenge): high potency; Effect on B. thuringiensis insecticidal activity [13]: significantly (p < 0.05) increased; Inhibition of phagocytosis (in words) ([8]; S. exigua hemocytes): highly potent; Feeding (oral) toxicity (in words) ([9]; leaf-dipping method): most potent |
| CCCCNCCCC [DBA, dibutylamine] | 0.18 ± 0.02 c µg/mL | 38.77 ± 3.26 b µg/larva | 0.80 ± 0.03 b µg/mL | 0.71 ± 0.05 d ng/larva | 0.19 ± 0.02 c µg/mL |  | 0.11 ± 0.02 de µg/mL | 5.0 ± 0.58 c ng/larva | 2969.46 ± 50.56 c µg/mL | Acute oral toxicity (LD50) [10, 15]: 1.89 g/kg; Acute dermal toxicity (LD50) [11, 15]: 7.68 g/kg |
| N#Cc1ccc(C(=O)O)cc1 [4-cyanobenzoic acid] |  |  |  |  |  |  |  |  |  | IC50 ([14]; diphenolase activity of mushroom tyrosinase, read-out: IC50 for diphenolase): 1.4 mM; IC50 ([14]; monophenolase activity of mushroom tyrosinase, read-out: IC50 for monophenolase): 2.45 mM |
